From US10413632B2, “Cement products and methods of making and using the same” (Pioneer Surgical Technology, Inc., priority 2007, dated 2019)

Source text: The side chain amino groups of certain amino acid can serve as nucleophiles for the Michael addition to enones. Generally, amino acids are flaky or crystalline solids at room temperature, thus, they should be dissolved in a liquid to effectively participate in the set reaction.

Compound	solubility (w/w) in PEI [%]	solubility (w/w) in DAB [%]
Nc1nc(N)c2nc[nH]c2n1 [DAP, diaminopurine]	18.8	–
N[C@@H](CS)C(=O)O [CYS, L-cysteine]	18.2	19.5
N[C@@H](Cc1c[nH]c2ccccc12)C(=O)O [TRP, L-Tryptophan]	46.46	29.4
NCCCC[C@H](N)C(=O)O [LYS, L-Lysine]	–	16.1
Nc1cc(O)nc(N)n1 [DAHP, 2,4-diamino-6-hydroxypyrimidine]	13.8	–
N[C@@H](Cc1ccccc1)C(=O)O [PHE, L-phenylalanine]	61.24	28
